This note sets out measurements from ChEMBL document CHEMBL3608259, “Carbonic Anhydrase Glycoinhibitors belonging to the Aminoxysulfonamide Series” (ACS Med Chem Lett, 2015).

Structures are written as SMILES.

As a reminder, the Ki is a measure of affinity in units of concentration, obtained from inhibition or displacement. Higher therefore signals weaker binding.

The experiment concerns the target Carbonic anhydrase 9 (Homo sapiens, UniProt Q16790).
Description: Inhibition of human recombinant carbonic anhydrase-9 catalytic domain by stopped-flow CO2 hydration assay
For `NS(=O)(=O)ONC(=O)OCc1ccccc1`, the Ki was 57 nM. Consider `NOS(=O)(=O)NC(=O)OCc1ccccc1`, for which the Ki worked out at 77 nM.

Turning to `NOS(=O)(=O)NC1C=C[C@H](O)[C@@H](CO)O1` (mixture of isomers), the affinity, expressed as Ki, was 85 nM. Take `CC(=O)OC[C@H]1OC(NS(=O)(=O)ON)C=C[C@@H]1OC(C)=O` (mixture of isomers): the Ki is 90 nM. Consider `CC(=O)OC[C@H]1OC(NS(=O)(=O)ON)C=C[C@H]1OC(C)=O` (mixture of isomers), for which the affinity, expressed as Ki, was 75 nM.

In turn, `CC(=O)O[C@H]1C=CC(NS(=O)(=O)ON)OC1` (mixture of isomers) registered a Ki of 75 nM. This counts as double-digit nanomolar. For `CC(=O)O[C@@H]1C=CC(NS(=O)(=O)ON)OC1` (mixture of isomers), the Ki was found to be 86 nM. The value for `CC(=O)O[C@@H]1C=CC(NS(=O)(=O)ON)O[C@H]1C` (mixture of isomers) was 86 nM; that for `NOS(=O)(=O)NC1C=C[C@@H](O)[C@@H](CO)O1` (mixture of isomers) was 61 nM.

In the case of `NOS(=O)(=O)NC1C=C[C@H](O)CO1` (mixture of isomers), the affinity corresponds to a Ki of 91 nM. The value for `NOS(=O)(=O)NC1C=C[C@@H](O)CO1` (mixture of isomers) was 74 nM. As for `C[C@@H]1OC(NS(=O)(=O)ON)C=C[C@H]1O` (mixture of isomers), the affinity corresponds to a Ki of 61 nM.
